In patent US6849598B1, “Therapeutic compositions comprising bactericidal/permeability-increasing (BPI) protein products” (XOMA, priority 1995, dated 2005):

Test system: P. aeruginosa (ATCC 19660)
Assay: Antibiotic susceptibility (MIC, Microscan® MIC Plus Type 2 panel) with rBPI21/P123 and EDTA
Assay type: cell-based
Set-up: key to susceptibility interpretation of MIC (superscript): R: resistant; I: intermediate; S: susceptible
Conditions: Control (No BPI21)
Protocol: In additional experiments, a BPI protein product, rBPI21, was formulated with an anti-bacterial activity enhancing poloxamer, specifically PLURONIC P123, and with various concentrations of EDTA, and was evaluated for its effect on the antibiotic susceptibility of a Pseudomonas aeruginosa (ATCC 19660). Antibiotic susceptibility was determined using Microscan® panel plates (Dade Microscan, West Sacramento, Calif.) that allow simultaneous determination of minimum inhibitory concentrations for a number of different antibiotics.
The antimicrobial susceptibility tests performed on the Microscan® panel plates are miniaturizations of the broth dilution susceptibility test. Antimicrobial agents are serially diluted in Mueller-Hinton broth (supplemented with calcium and magnesium, or with sodium chloride for oxacillin, or with thymidine phosphorylase for trimethoprim, sulfamethoxazole and trimethoprim/ sulfamethoxazole) to concentrations bridging the range of clinical interest. One well on the 96-well Microscan® plate is a growth control well that contains dehydrated broth only. The remaining wells contain dehydrated broth and antibiotic (or broth and biochemical reagent indicator), which is rehydrated to the desired concentration by inoculation of a standardized suspension of test organism. The chromogenic biochemical agent indicators are used to identify and characterize the species of bacteria based on detection of pH changes and substrate utilization. […] Gram-negative and gram positive organisms may be tested using any of the Microscan® panel plates (Microscan®, Dade Microscan, West Sacramento, Calif.). In these experiments with P. aeruginosa, the MIC Plus Type 2 panel plates were used. The concentrations of antibiotics tested in this panel plate are shown below in Table 16. The antibiotic susceptibility standards (interpretation of an MIC as resistant, intermediate or susceptible according to Microscan®'s NCCLS-derived standards) applicable to the gram-negative organisms that may be tested in each panel plate appear below in Table 16A.
For these experiments with P. aeruginosa, the following procedure was performed: The organism was streaked onto TSA plates (Remel, Lenexa, Kans.) and incubated for 18-24 hours overnight. Well-isolated A, colonies from the plates were emulsified in 3 ml of sterile Inoculum Water d(catalog no. B1015-2, MicrosScan® system, Dade Microscan, West Sacramento, Calif.) to a final turbidity equivalent to 0.5 McFarland Barium Sulfate standard. This cell suspension was vortexed for 2 to 3 seconds and 100 μl was transferred to glass tubes containing 25 ml of Inoculum Water with Pluronic-D (catalog no. B1015-7, MicroScan® system, Dade Microscan, West Sacramento, Calif.) (hereinafter “Pluronic Inoculum Water”), or 25 ml of Pluronic Inoculum Water into which rBPI21 in 0.2% PLURONIC P123, 0.002% TWEEN 80, 5mM sodium citrate, 150 mM NaCl (“rBPI21/P123”) had been diluted to 64 μg/ml rBPI21.
The 25 ml of this inoculum containing rBPI21 was mixed by inversion and poured into a tray. The inoculum was drawn up into a manual 96-well pipetting system (RENOK^− rehydrator-inoculator system, Dade Microscan, West Sacramento, Calif.) designed for use with the Microscan® panel plates, and 110 μl of the inoculum was delivered to each well of a Microscan® MIC Plus Type 2 panel plate. When added to the wells, this inoculum achieves a final bacterial concentration of 4×10^5 to 7×10^5 CFU/ml. The panel plates were then incubated at 35° C. for 15-24 hours and read visually for cell growth.
No growth was defined as a slight whiteness in the well or a clear broth. Growth appeared as turbidity which could take the form of a white haze throughout the well, a white button in the center of the well, or a fine granule growth throughout the well. All wells were read against a black indirectly lighted background. Visual results of the biochemical reactions were read into a database for bacterial identification.

Row | susceptibility interpretation of MIC (superscript) | Structure (SMILES) | Minimum Inhibitory Concentration of Antibiotic [µg/mL]
1 | S | CCN1CCN(C(=O)N[C@@H](C(=O)N[C@@H]2C(=O)N3C(C(=O)O)=C(CSc4nnnn4C)CS[C@H]23)c2ccc(O)cc2)C(=O)C1=O [Cefoperazone] | < 4
2 | I | CO/N=C(\C(=O)N[C@@H]1C(=O)N2C(C(=O)O)=C(COC(C)=O)CS[C@H]12)c1csc(N)n1 [Cefotaxime] | 32
3 | R | CO[C@@]1(NC(=O)C2SC(=C(C(N)=O)C(=O)O)S2)C(=O)N2C(C(=O)O)=C(CSc3nnnn3C)CS[C@@H]21 (stereo partly shown) [Cefotetan] | > 32
4 | S | C[C@@H](O)[C@H]1C(=O)N2C(C(=O)O)=C(SCCN=CN)C[C@H]12 [Imipenem] | 1
5 | S | CC1(C)S[C@@H]2[C@H](NC(=O)[C@H](NC(=O)N3CCN(S(C)(=O)=O)C3=O)c3ccccc3)C(=O)N2[C@H]1C(=O)O [Mezlocillin] | < 16
6 | S | CCN[C@@H]1C[C@H](N)[C@@H](O[C@H]2OC(CN)=CC[C@H]2N)[C@H](O)[C@H]1O[C@H]1OC[C@](C)(O)[C@H](NC)[C@H]1O [Netilmicin] | 4

Same assay, conditions: rBPI21/P123 at 64 μg/ml rBPI21; With 0% EDTA

Row | susceptibility interpretation of MIC (superscript) | Structure (SMILES) | Minimum Inhibitory Concentration of Antibiotic [µg/mL]
7 | S | CCN1CCN(C(=O)N[C@@H](C(=O)N[C@@H]2C(=O)N3C(C(=O)O)=C(CSc4nnnn4C)CS[C@H]23)c2ccc(O)cc2)C(=O)C1=O [Cefoperazone] | < 4
8 | I | CO/N=C(\C(=O)N[C@@H]1C(=O)N2C(C(=O)O)=C(COC(C)=O)CS[C@H]12)c1csc(N)n1 [Cefotaxime] | 16
9 | R | CO[C@@]1(NC(=O)C2SC(=C(C(N)=O)C(=O)O)S2)C(=O)N2C(C(=O)O)=C(CSc3nnnn3C)CS[C@@H]21 (stereo partly shown) [Cefotetan] | > 32
10 | S | C[C@@H](O)[C@H]1C(=O)N2C(C(=O)O)=C(SCCN=CN)C[C@H]12 [Imipenem] | 1
11 | S | CC1(C)S[C@@H]2[C@H](NC(=O)[C@H](NC(=O)N3CCN(S(C)(=O)=O)C3=O)c3ccccc3)C(=O)N2[C@H]1C(=O)O [Mezlocillin] | < 16
12 | S | CCN[C@@H]1C[C@H](N)[C@@H](O[C@H]2OC(CN)=CC[C@H]2N)[C@H](O)[C@H]1O[C@H]1OC[C@](C)(O)[C@H](NC)[C@H]1O [Netilmicin] | < 2

Same assay, conditions: rBPI21/P123 at 64 μg/ml rBPI21; With 0.01% EDTA

Row | susceptibility interpretation of MIC (superscript) | Structure (SMILES) | Minimum Inhibitory Concentration of Antibiotic [µg/mL]
13 | S | CCN1CCN(C(=O)N[C@@H](C(=O)N[C@@H]2C(=O)N3C(C(=O)O)=C(CSc4nnnn4C)CS[C@H]23)c2ccc(O)cc2)C(=O)C1=O [Cefoperazone] | < 4
14 | S | CO/N=C(\C(=O)N[C@@H]1C(=O)N2C(C(=O)O)=C(COC(C)=O)CS[C@H]12)c1csc(N)n1 [Cefotaxime] | 4
15 | S | CO[C@@]1(NC(=O)C2SC(=C(C(N)=O)C(=O)O)S2)C(=O)N2C(C(=O)O)=C(CSc3nnnn3C)CS[C@@H]21 (stereo partly shown) [Cefotetan] | < 4
16 | S | C[C@@H](O)[C@H]1C(=O)N2C(C(=O)O)=C(SCCN=CN)C[C@H]12 [Imipenem] | < 0.5
17 | S | CC1(C)S[C@@H]2[C@H](NC(=O)[C@H](NC(=O)N3CCN(S(C)(=O)=O)C3=O)c3ccccc3)C(=O)N2[C@H]1C(=O)O [Mezlocillin] | < 16
18 | S | CCN[C@@H]1C[C@H](N)[C@@H](O[C@H]2OC(CN)=CC[C@H]2N)[C@H](O)[C@H]1O[C@H]1OC[C@](C)(O)[C@H](NC)[C@H]1O [Netilmicin] | < 2

Same assay, conditions: rBPI21/P123 at 64 μg/ml rBPI21; With 0.05% EDTA

Row | susceptibility interpretation of MIC (superscript) | Structure (SMILES) | Minimum Inhibitory Concentration of Antibiotic [µg/mL]
19 | S | CCN1CCN(C(=O)N[C@@H](C(=O)N[C@@H]2C(=O)N3C(C(=O)O)=C(CSc4nnnn4C)CS[C@H]23)c2ccc(O)cc2)C(=O)C1=O [Cefoperazone] | < 4
20 | S | CO/N=C(\C(=O)N[C@@H]1C(=O)N2C(C(=O)O)=C(COC(C)=O)CS[C@H]12)c1csc(N)n1 [Cefotaxime] | < 2
21 | S | CO[C@@]1(NC(=O)C2SC(=C(C(N)=O)C(=O)O)S2)C(=O)N2C(C(=O)O)=C(CSc3nnnn3C)CS[C@@H]21 (stereo partly shown) [Cefotetan] | < 4
22 | S | C[C@@H](O)[C@H]1C(=O)N2C(C(=O)O)=C(SCCN=CN)C[C@H]12 [Imipenem] | < 0.5
23 | S | CC1(C)S[C@@H]2[C@H](NC(=O)[C@H](NC(=O)N3CCN(S(C)(=O)=O)C3=O)c3ccccc3)C(=O)N2[C@H]1C(=O)O [Mezlocillin] | < 16
24 | S | CCN[C@@H]1C[C@H](N)[C@@H](O[C@H]2OC(CN)=CC[C@H]2N)[C@H](O)[C@H]1O[C@H]1OC[C@](C)(O)[C@H](NC)[C@H]1O [Netilmicin] | < 2

Same assay, conditions: rBPI21/P123 at 64 μg/ml rBPI21; With 0.1% EDTA

Row | susceptibility interpretation of MIC (superscript) | Structure (SMILES) | Minimum Inhibitory Concentration of Antibiotic [µg/mL]
25 | S | CCN1CCN(C(=O)N[C@@H](C(=O)N[C@@H]2C(=O)N3C(C(=O)O)=C(CSc4nnnn4C)CS[C@H]23)c2ccc(O)cc2)C(=O)C1=O [Cefoperazone] | < 4
26 | S | CO/N=C(\C(=O)N[C@@H]1C(=O)N2C(C(=O)O)=C(COC(C)=O)CS[C@H]12)c1csc(N)n1 [Cefotaxime] | < 2
27 | S | CO[C@@]1(NC(=O)C2SC(=C(C(N)=O)C(=O)O)S2)C(=O)N2C(C(=O)O)=C(CSc3nnnn3C)CS[C@@H]21 (stereo partly shown) [Cefotetan] | < 4
28 | S | C[C@@H](O)[C@H]1C(=O)N2C(C(=O)O)=C(SCCN=CN)C[C@H]12 [Imipenem] | < 0.5
29 | S | CC1(C)S[C@@H]2[C@H](NC(=O)[C@H](NC(=O)N3CCN(S(C)(=O)=O)C3=O)c3ccccc3)C(=O)N2[C@H]1C(=O)O [Mezlocillin] | < 16
30 | S | CCN[C@@H]1C[C@H](N)[C@@H](O[C@H]2OC(CN)=CC[C@H]2N)[C@H](O)[C@H]1O[C@H]1OC[C@](C)(O)[C@H](NC)[C@H]1O [Netilmicin] | < 2

Same assay, conditions: summary of Table 17

Row | Structure (SMILES) | effect of EDTA added to the rBPI21/P123 formulation on susceptibility of the strain to the antibiotic
31 | CO/N=C(\C(=O)N[C@@H]1C(=O)N2C(C(=O)O)=C(COC(C)=O)CS[C@H]12)c1csc(N)n1 [Cefotaxime] | increasing the susceptibility
